This passage reports inhibition results from patent publication US12145929B2, “Piperidine derivative and pharmaceutical composition for inhibiting autotaxin comprising same” (NEXTGEN BIOSCIENCE CO., LTD., priority 2021, dated 2024).

The target in the assay is human Autotaxin protein (Homo sapiens, UniProt Q13822). The experiment in a line: Evaluation of inhibitory activity against human Autotaxin protein (18:1 LysoPC substrate, choline assay kit, absorbance 570 nm). The assay is classed as biochemical. The settings on record: compound at 500 nM, 2 hours at 37° C. How it is done: The solution of each synthesized compound (80 uM, 100% dimethyl sulfoxide) was sequentially diluted 5 times with dimethyl sulfoxide to prepare 6 concentrations. Each concentration of compound was diluted two-fold with 1× test buffer (50 mM Tris-Cl (pH 8.0), 5 mM KCl, 1 mM CaCl2), 1 mM MgCl2, 140 mM NaCl, deionized water, 1 mg/mL BSA), and 1 uL (1.25% dimethyl sulfoxide) of this diluted mixture was dispensed into each well of a 96 well clear round bottom plate. 9 uL of 1× test buffer were added to each well, followed by the addition of 20 uL of 240 nM human Autotaxin protein (buffer: 50 mM Tris-HCl, pH 8.0, with 150 mM sodium chloride and 20% glycerol). 10 uL of sonicated 360 uM 18:1 LysoPC (diluted with 1× test buffer) were added to each well. The reaction was performed for 2 hours in a shaking incubator at 37° C., and a secondary reaction mixture (choline assay kit, KA1662) (65 uL of 1× test buffer: 1 uL of choline oxidase: 1 uL of dye probe) was prepared. 60 uL of the secondary reaction mixture were added to the reaction plate and reacted on a shaker for 30 minutes. Using a SpectraMax iD3 microplate reader, the absorbance was measured at a wavelength of 570 nm. The percentage of inhibition activity (% inhibition) was calculated by the Formula: (1−Absorbancetestgroup/Absorbancecontrol group)×100.

The compound `CS(=O)(=O)c1cccc(CNc2ncc(C3CC(N4CCC(c5cnn[nH]5)CC4)=NO3)cn2)c1` (stereo not drawn) [Example 48, 5-(3-(4-(1H-1,2,3-triazol-5-yl)piperidin-1-yl)-4,5-dihydroisoxazol-5-yl)-N-(3-(methylsulfonyl)benzyl)pyrimidin-2-amine] had an inhibition at 0.5 µM of 3.4%.
On to `c1ccc2c(c1)CC(Nc1ncc(C3CC(N4CCC(c5cnn[nH]5)CC4)=NO3)cn1)C2` (stereo not drawn) [Example 35, N-indan-2-yl-5-[3-[4-(1H-triazol-5-yl)-1-piperidyl]-4,5-dihydroisoxazol-5-yl]pyrimidin-2-amine], for which the inhibition at 0.5 µM is 96%.
For the compound `O=C(/C=C/c1cnc(NC2Cc3cc(F)c(F)cc3C2)nc1)N1CCC(c2cnn[nH]2)CC1` [Example 30, (E)-1-(4-(1H-1,2,3-triazol-5-yl)piperidin-1-yl)-3-(2-((5,6-difluoro-2,3-dihydro-1H-inden-2-yl)amino)pyrimidin-5-yl)prop-2-en-1-one], testing at 0.5 µM gave an inhibition of 97.8%.
In turn, `Fc1cc2c(cc1F)CC(Nc1ncc(C3CC(N4CCC(c5nnn[nH]5)CC4)=NO3)cn1)C2` (stereo not drawn) [Example 52, 5-(3-(4-(1H-tetrazol-5-yl)piperidin-1-yl)-4,5-dihydroisoxazol-5-yl)-N-(5,6-difluoro-2,3-dihydro-1H-inden-2-yl)pyrimidin-2-amine] gave an inhibition at 0.5 µM of 4.8%.
To `O=c1[nH]nc(C2CCN(c3nnc(-c4cnc(NC5Cc6cc(F)c(F)cc6C5)nc4)o3)CC2)o1` [Example 66, 5-(1-(5-(2-((5,6-Difluoro-2,3-dihydro-1H-inden-2-yl)amino)pyrimidin-5-yl)-1,3,4-oxadiazol-2-yl)piperidin-4-yl)-1,3,4-oxadiazol-2(3H)-one] belongs 86.8%; to `c1cc2c(cc1CNc1ncc(-c3nnc(N4CCC(c5cnn[nH]5)CC4)o3)cn1)OCO2` [Example 55, 5-(5-(4-(1H-1,2,3-triazol-5-yl)piperidin-1-yl)-1,3,4-oxadiazol-2-yl)-N-(benzo[d][1,3]dioxol-5-ylmethyl)pyrimidin-2-amine], 52%; to `Fc1cc2c(cc1F)CC(Nc1ncc(-c3nnc(N4CCC(N5CCOCC5)CC4)o3)cn1)C2` [Example 63, N-(5,6-difluoro-2,3-dihydro-1H-inden-2-yl)-5-(5-(4-morpholinopiperidin-1-yl)-1,3,4-oxadiazol-2-yl)pyrimidin-2-amine], 42.9%.
To `Fc1ccc(CNc2ncc(-c3nnc(N4CCC(c5cnn[nH]5)CC4)o3)cn2)cc1F` [Example 58, 5-(5-(4-(1H-1,2,3-triazol-5-yl)piperidin-1-yl)-1,3,4-oxadiazol-2-yl)-N-(3,4-difluorobenzyl)pyrimidin-2-amine] belongs 84%; to `Fc1cc(F)cc(CNc2ncc(-c3nnc(N4CCC(c5cnn[nH]5)CC4)o3)cn2)c1` [Example 57, 5-(5-(4-(1H-1,2,3-triazol-5-yl)piperidin-1-yl)-1,3,4-oxadiazol-2-yl)-N-(3,5-difluorobenzyl)pyrimidin-2-amine], 88.1%.
Regarding `O=C(CCc1cnc(NC2Cc3ccccc3C2)nc1)N1CCC(c2cnn[nH]2)CC1` [Example 17, 1-(4-(1H-1,2,3-Triazol-5-yl)piperidin-1-yl)-3-(2-((2,3-dihydro-1H-inden-2-yl)amino)pyrimidin-5-yl)propan-1-one], testing at 0.5 µM gave an inhibition of 92%.
`O=C(CCCc1nnc(NC2Cc3ccccc3C2)o1)N1CCC(c2cnc[nH]2)CC1` [Example 22, 1-(4-(1H-Imidazol-5-yl)piperidin-1-yl)-4-(5-((2,3-dihydro-1H-inden-2-yl)amino)-1,3,4-oxadiazol-2-yl)butan-1-one]: the inhibition at 0.5 µM stood at 17%.
To `c1ccc(Cn2nncc2C2CCN(c3cnc(-c4cnc(NC5Cc6ccccc6C5)nc4)o3)CC2)cc1` [Example 31, 5-(5-(4-(1-Benzyl-1H-1,2,3-triazol-5-yl)piperidin-1-yl)oxazol-2-yl)-N-(2,3-dihydro-1H-inden-2-yl)pyrimidin-2-amine] belongs 8.1%.
